# From ChEMBL document CHEMBL1123017, “Synthesis and antifertility activity of zoapatanol analogues” (1985)
# Experiments:
# Format in all cases: functional
# Cavia porcellus [1] = assay: Compound was evaluated for contragestational activity in guinea pig after intraperitoneal administration; Range is 25-50
# Cavia porcellus [2] = assay: Contragestational activity in guinea pig after intraperitoneal administration; Not Significant.
# Cavia porcellus [3] = assay: Compound was evaluated for contragestational activity in guinea pig after intraperitoneal administration; Range is 50-100
# Cavia porcellus [4] = assay: Compound was evaluated for contragestational activity in guinea pig after intraperitoneal administration; Range is 10-25
# Cavia porcellus [5] = assay: Compound was evaluated for contragestational activity in guinea pig after intraperitoneal administration
smiles,measurement,setting,value
CC(C)=CCC(=O)C(C)CCC[C@]1(C)OC[C@]2(C(=O)O)CC[C@H]1O2 (stereo partly specified),Contragestational activity,Cavia porcellus [1],25 mg/kg
CC(CCC[C@]1(C)OC[C@]2(CC(=O)O)CC[C@H]1O2)C(=O)O (stereo partly specified),Contragestational activity,Cavia porcellus [2],>100 mg/kg
COC(=O)/C=C1\CC[C@@H](OC(C)=O)[C@](C)(CCCC(C)C(O)CC=C(C)C)OC1 (stereo partly specified),Contragestational activity,Cavia porcellus [2],>100 mg/kg
C/C(=C\C(C)(O)C(C)CCC[C@]1(C)OC/C(=C/CO)CC[C@H]1O)C(C)C (stereo partly specified),Contragestational activity,Cavia porcellus [2],>100 mg/kg
CC(=O)OC/C=C1\CCC(=O)[C@](C)(CCCC(C)C(=O)CC=C(C)C)OC1 (stereo partly specified),Contragestational activity,Cavia porcellus [2],>100 mg/kg
CC(=O)O[C@@H]1CC/C(=C\CO)CO[C@@]1(C)CCCC(C)C(=O)CC=C(C)C (stereo partly specified),Contragestational activity,Cavia porcellus [1],25 mg/kg
CC(=O)OC/C=C1\CC[C@@H](OC(C)=O)[C@](C)(CCCC(C)C(=O)CC=C(C)C)OC1 (stereo partly specified),Contragestational activity,Cavia porcellus [3],50 mg/kg
CC(C)=CCC(=O)C(C)CCC[C@]1(C)OC/C(=C/CO)CC[C@H]1O (stereo partly specified),Contragestational activity,Cavia porcellus [3],50 mg/kg
CC(=O)OC/C=C1\CC[C@@H](OC(C)=O)[C@](C)(CCCC(C)C(O)CC=C(C)C)OC1 (stereo partly specified),Contragestational activity,Cavia porcellus [3],50 mg/kg
CC(C)CCC(=O)C(C)CCC[C@]1(C)OCC(CCO)CC[C@H]1O (stereo partly specified),Contragestational activity,Cavia porcellus [2],>100 mg/kg
C=C[C@@]12CC[C@@H](O1)[C@](C)(CCCC(C)C(=O)CC=C(C)C)OC2 (stereo partly specified),Contragestational activity,Cavia porcellus [2],>100 mg/kg
CC(C)=CCC(O)C(C)CCC[C@]1(C)OC/C(=C/CO)CC[C@H]1O (stereo partly specified),Contragestational activity,Cavia porcellus [4],10 mg/kg
CC(C)=CCC(O)C(C)CCC[C@]1(C)OC[C@]2(CCO)CC[C@H]1O2 (stereo partly specified),Contragestational activity,Cavia porcellus [3],50 mg/kg
C/C(=C\C(=O)C(C)CCC[C@]1(C)OC[C@]2(CC(=O)O)CC[C@H]1O2)C(C)C (stereo partly specified),Contragestational activity,Cavia porcellus [3],50 mg/kg
CC(CCC[C@]1(C)OC[C@]2(CC(=O)O)CC[C@H]1O2)C(=O)CC(C)C(C)C (stereo partly specified),Contragestational activity,Cavia porcellus [2],>100 mg/kg
CC(CCC[C@]1(C)OC[C@]2(CC(=O)O)CC[C@H]1O2)C(=O)/C=C/C(C)(C)O (stereo partly specified),Contragestational activity,Cavia porcellus [2],>100 mg/kg
C#CC(O)(CC=C(C)C)C(C)CCC[C@]1(C)OC[C@]2(CC(=O)O)CC[C@H]1O2 (stereo partly specified),Contragestational activity,Cavia porcellus [4],10 mg/kg
CC(C)=CCC(O)C(C)CCC[C@]1(C)OC[C@]2(CC=O)CC[C@H]1O2 (stereo partly specified),Contragestational activity,Cavia porcellus [5],<10 mg/kg
CC(C)=CCC(=O)C(C)CCC[C@]1(C)OC[C@]2(CC=O)CC[C@H]1O2 (stereo partly specified),Contragestational activity,Cavia porcellus [5],<10 mg/kg
CC(C)CCC(O)C(C)CCC[C@]1(C)OC[C@]2(CC=O)CC[C@H]1O2 (stereo partly specified),Contragestational activity,Cavia porcellus [5],<10 mg/kg
CC(C)=CCC(=O)C(C)CCC[C@]1(C)OC[C@]2(CC(=O)O)CC[C@H]1O2 (stereo partly specified),Contragestational activity,Cavia porcellus [5],<10 mg/kg
CC(C)=CCC(O)C(C)CCC[C@]1(C)OC[C@]2(CC(=O)O)CC[C@H]1O2 (stereo partly specified),Contragestational activity,Cavia porcellus [5],<10 mg/kg
CC(=O)O[C@@H]1CCC(=O)CO[C@@]1(C)CCCC(C)C(=O)O (stereo partly specified),Contragestational activity,Cavia porcellus [2],>100 mg/kg
CC(C)=CCC(=O)C(C)CCC[C@]1(C)OC[C@]2(CCO)CC[C@H]1O2 (stereo partly specified),Contragestational activity,Cavia porcellus [5],<10 mg/kg
CC(C)CCC(O)C(C)CCC[C@]1(C)OC[C@]2(CCO)CC[C@H]1O2 (stereo partly specified),Contragestational activity,Cavia porcellus [4],10 mg/kg
C/C(=C\C(=O)C(C)CCC[C@]1(C)OC[C@]2(C(=O)O)CC[C@H]1O2)C(C)C (stereo partly specified),Contragestational activity,Cavia porcellus [2],>100 mg/kg
CC(C)=CCC(C)(O)C(C)CCC[C@]1(C)OC[C@]2(CC(=O)O)CC[C@H]1O2 (stereo partly specified),Contragestational activity,Cavia porcellus [5],<10 mg/kg
C/C(=C\C(=O)C(C)CCC[C@]1(C)OC/C(=C/CO)CC[C@H]1O)C(C)C (stereo partly specified),Contragestational activity,Cavia porcellus [2],>100 mg/kg
CC(C)=CCC(O)C(C)CCC[C@]1(C)OC[C@]2(C(=O)O)CC[C@H]1O2 (stereo partly specified),Contragestational activity,Cavia porcellus [4],10 mg/kg
CC(C)CCC(O)C(C)CCC[C@]1(C)OC[C@]2(CC(=O)O)CC[C@H]1O2 (stereo partly specified),Contragestational activity,Cavia porcellus [5],<10 mg/kg
C#CC(O)(CC=C(C)C)C(C)CCC[C@]1(C)OC/C(=C/CO)CC[C@H]1O (stereo partly specified),Contragestational activity,Cavia porcellus [2],>100 mg/kg
CC(C)=CCC(C)(O)C(C)CCC[C@]1(C)OC/C(=C/CO)CC[C@H]1O (stereo partly specified),Contragestational activity,Cavia porcellus [4],10 mg/kg
C/C(=C\C(O)C(C)CCC[C@]1(C)OC/C(=C/CO)CC[C@H]1O)C(C)C (stereo partly specified),Contragestational activity,Cavia porcellus [2],>100 mg/kg
CC(CCC[C@]1(C)OC/C(=C/CO)CC[C@H]1O)C(=O)/C=C/C(C)(C)O (stereo partly specified),Contragestational activity,Cavia porcellus [2],>100 mg/kg
COC(=O)C[C@@]12CC[C@@H](O1)[C@](C)(CCCC(C)C(O)CC=C(C)C)OC2 (stereo partly specified),Contragestational activity,Cavia porcellus [5],<10 mg/kg
CC(=O)OC/C=C1\CC[C@@H](O)[C@](C)(CCCC(C)C(=O)CC=C(C)C)OC1 (stereo partly specified),Contragestational activity,Cavia porcellus [3],50 mg/kg
CC(C)CCC(=O)C(C)CCC[C@]1(C)OC[C@]2(CC(=O)O)CC[C@H]1O2 (stereo partly specified),Contragestational activity,Cavia porcellus [1],25 mg/kg
CC(=O)O[C@@H]1CC/C(=C\C=O)CO[C@@]1(C)CCCC(C)C(=O)CC=C(C)C (stereo partly specified),Contragestational activity,Cavia porcellus [4],10 mg/kg
COC(=O)C[C@@]12CC[C@@H](O1)[C@](C)(CCCC(C)CO)OC2 (stereo partly specified),Contragestational activity,Cavia porcellus [2],>100 mg/kg
CC(CCC[C@]1(C)OC/C(=C/CO)CC[C@H]1O)C(=O)/C=C/C(C)(C)OO (stereo partly specified),Contragestational activity,Cavia porcellus [2],>100 mg/kg
CC(=O)OC/C=C1\CC[C@@H](OC(C)=O)[C@](C)(CCCC(C)C(CC=C(C)C)OC(C)=O)OC1 (stereo partly specified),Contragestational activity,Cavia porcellus [1],50 mg/kg
